Results from US20120315624A1, “Using LNA Flow-Fish to Quantitatively Monitor Viral Infections in Infected Cells and Test the Efficacy of Antiviral Medications” (priority 2011, published 2012).

Legend:
Sindbis virus (SV) [1] = experiment: EGFP signal of the recombinant Sindbis virus measured by flow cytometry; format: cell-based; conditions: SV-infected cells, 6-h incubation with Rbv, FIG. 4
Protocol: Sindbis virus (SV) was used to test the LNA flow-FISH method for the quantitative monitoring of a viral infection in cells. After infecting cells with SV, cells were collected at different timepoints and their mean fluorescence intensity (MFI) was measured using flow cytometry. The LNA flow-FISH technique was directly compared with a genetic recombination method of measuring viral infection—this was possible because the SV strain has an enhanced green fluorescent protein (eGFP) construct incorporated into the viral RNA. […] In addition, lysed cells were used to compare the LNA flow-FISH results with QRT-PCR.
(§1) To use the LNA flow-FISH method to study the efficacy of antiviral medication, before, during, or after infection, cells were treated with an antiviral compound and left for various amounts of time. The LNA flow-FISH method is then used as described above. The change in viral nucleic acid with antiviral treatment can be quantified by taking the mean fluorescence intensity (MFI) or by examining the percent of infected cells compared to uninfected cells.
(§2) As an example, Sindbis virus (SV) was used along with Ribavirin (Rbv), an antiviral, to test the LNA flow-FISH method for studying the action and efficacy of antiviral medications. […] Samples infected with SV with and without Rbv were analyzed by LNA flow-FISH.

Sindbis virus (SV) [2] = experiment: LNA flow-FISH of Sindbis virus RNA in infected cells with and without antiviral; format: cell-based
Protocol: Cells were infected with the virus of interest and harvested at various timepoints during infection. Cells were harvested and fixed with 4% paraformaldehye and 5% acetic acid in phosphate-buffered saline (PBS) for 10 min at room temperature. After fixation, the cells were washed twice in PBS and stored at 4° C. until use.
A control oligonucleotide and a specific biotinylated LNA-modified DNA oligonucleotide were used for the quantification of SV RNA. The sequences of the probes along with other relevant details are found in reference 30. The control probe is a nonspecific 22-mer oligonucleotide (nonspecific LNA) lacking complementarity to cellular nucleic acids and having a Tm of 75° C. The specific LNA probe (SV LNA), complementary to the SV RNA portion encoding the structural proteins, was also a 22-mer with a Tm of 76° C. Each had approximately one-third locked nucleic acid content.
When ready to detect the virus present in the cells at various timepoints, the cells were permeabilized with 0.1 μg/mL Proteinase K in TE buffer (pH 8.0) for 30 min at 37° C. The cells were then washed twice with PBS. A pre-hybridization step was then carried out under the same conditions as the hybridization, but without LNA probe. After pre-hybridization, a solution of 0.1× saline-sodium citrate (SSC) buffer was added followed by centrifugation and removal of the supernatant. […]
as §1, with “The LNA flow-FISH method is then used as described above.” left out
as §2

[3] = system: many DNA and RNA viruses including Sindbis; conditions: general statement on the nucleoside analog; cited from earlier work

With NC(=O)c1ncn([C@@H]2O[C@H](CO)[C@@H](O)[C@H]2O)n1 [Rbv, Ribavirin] the “viral expression (EGFP)” value (Sindbis virus (SV) [1]) was “reduction”, the “viral replication (SV RNA by LNA flow-FISH)” value (Sindbis virus (SV) [2]; 6-h incubation with Rbv, FIG. 4) was “reduction in viral replication” and the “mean fluorescence intensity (MFI) of samples with Rbv versus samples without antiviral” value (Sindbis virus (SV) [2]; 6 h, SV LNA flow-FISH and EGFP, FIG. 4) was “drastically lower”. The “uninfected cells in the population when Rbv present” value (Sindbis virus (SV) [2]; 6 h with Rbv) was “no uninfected cells were observed” and the replication of viruses [3] was “inhibits the replication of many DNA and RNA viruses including Sindbis”.
